Converted amounts (≈) assume the structure as drawn. The source made the active and inactive calls. The rule behind the calls is not given here.
Tests used:
[1] = Inhibition of GST-tagged DLK (1 to 520 residues)(unknown origin) using MKK4 as substrate preincubated for 60 mins followed by substrate/ATP addition measured after 30 mins by HTRF assay; design: species or system Homo sapiens
[2] = Inhibition of human DLK transfected in HEK293-T-REx cells assessed as decrease in JNK phosphorylation incubated for 5 hrs by HTRF assay; type: cell-based
[3] = Kinetic solubility of compound at pH 6.8; type: physicochemical; details: buffer, read-out: Kinetic_solubility
[4] = Intrinsic clearance in human liver microsomes; type: ADME, Microsome; details: read-out: CLH
[5] = Ratio of unbound drug concentration in brain to plasma of mouse at 5 mg/kg; type: ADME, organism-based; details: brain and plasma, read-out: K(p,uu,brain)
[6] = Oral bioavailability in mouse at 5 mg/kg; type: ADME, organism-based; details: in vivo
[7] = Intrinsic clearance in mouse liver microsomes; type: ADME, Microsome; details: read-out: CLH
[8] = Apparent permeability across apical to basal side in MDCK-MDR1 cells; type: ADME, cell-based, Canis lupus familiaris; details: dog
[9] = Half life in mouse at 5 mg/kg, po; type: ADME, organism-based; details: in vivo
[10] = Clearance in mouse at 5 mg/kg, po; type: ADME, organism-based; details: in vivo
[11] = molecular target: Voltage-gated inwardly rectifying potassium channel KCNH2 (Homo sapiens, UniProt Q12809); test: Inhibition of hERG by patch-clamp method; type: toxicity
[12] = Energy of neutralization, pKa of compound; type: physicochemical
[13] = Efflux ratio in MDCK-MDR1 cells; type: ADME, cell-based, Canis lupus familiaris; details: dog
[14] = Intrinsic clearance in dog liver microsomes; type: ADME, Canis lupus familiaris, Microsome; details: read-out: CLH
[15] = Protection against paclitaxel-induced axon degeneration in C57/Bl6 mouse DRG neurons measured after 72 hrs by immunofluorescence based analysis; type: functional, cell-based; details: drg neuron
[16] = Inhibition of GST-tagged LZK (1 to 966 residues)(unknown origin) using MKK4 as substrate preincubated for 60 mins followed by substrate/ATP addition measured after 30 mins by HTRF assay; design: species or system Homo sapiens
[17] = Protection against paclitaxel-induced axon degeneration in C57/Bl6 mouse DRG neurons at 0.74 uM measured after 72 hrs by immunofluorescence based analysis relative to control; type: functional; details: C57/Bl6, DRG neuron
[18] = Inhibition of DLK in C57/Bl6 mouse DRG neuron model of paclitaxel-induced axon degeneration assessed as decrease in p-cJun level measured after 20 hrs by immunofluorescence based analysis; type: cell-based
CYP3A4 = CYP3A4 (Homo sapiens, UniProt P08684); test: Time dependent inhibition of CYP3A4 (unknown origin) at 30 uM incubated for 30 mins relative to control; type: ADME; details: read-out: TDI
CYP3A [19] = molecular target: T1, CYP3A (Homo sapiens, UniProt P08684+P20815+P24462+Q9HB55); test: Binding affinity to CYP3A in human liver microsomes assessed as inhibition constant; type: ADME, Microsome
CYP3A [20] = molecular target: T1, CYP3A; test: Binding affinity to CYP3A in human liver microsomes assessed as inactivation constant; type: ADME, Microsome
DRG neuron = test: Protection against paclitaxel-induced axon degeneration in C57/Bl6 mouse DRG neurons at 1 uM measured after 72 hrs by immunofluorescence based analysis; type: functional, cell-based

CYP3A4, sequence (P08684 whole entry): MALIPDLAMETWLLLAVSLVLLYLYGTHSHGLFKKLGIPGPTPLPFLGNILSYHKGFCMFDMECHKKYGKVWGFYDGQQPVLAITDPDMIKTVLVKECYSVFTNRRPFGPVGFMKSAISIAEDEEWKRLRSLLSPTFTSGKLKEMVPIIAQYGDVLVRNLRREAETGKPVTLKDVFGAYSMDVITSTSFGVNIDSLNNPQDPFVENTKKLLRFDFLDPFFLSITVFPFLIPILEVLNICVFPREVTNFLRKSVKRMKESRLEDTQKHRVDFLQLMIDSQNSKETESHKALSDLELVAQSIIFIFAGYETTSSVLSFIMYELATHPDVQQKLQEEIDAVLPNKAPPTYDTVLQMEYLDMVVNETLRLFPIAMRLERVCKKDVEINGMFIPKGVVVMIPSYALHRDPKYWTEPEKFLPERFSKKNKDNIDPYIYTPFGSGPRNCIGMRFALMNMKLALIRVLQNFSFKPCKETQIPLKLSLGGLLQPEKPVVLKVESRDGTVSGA
Voltage-gated inwardly rectifying potassium channel KCNH2, sequence (Q12809 whole entry): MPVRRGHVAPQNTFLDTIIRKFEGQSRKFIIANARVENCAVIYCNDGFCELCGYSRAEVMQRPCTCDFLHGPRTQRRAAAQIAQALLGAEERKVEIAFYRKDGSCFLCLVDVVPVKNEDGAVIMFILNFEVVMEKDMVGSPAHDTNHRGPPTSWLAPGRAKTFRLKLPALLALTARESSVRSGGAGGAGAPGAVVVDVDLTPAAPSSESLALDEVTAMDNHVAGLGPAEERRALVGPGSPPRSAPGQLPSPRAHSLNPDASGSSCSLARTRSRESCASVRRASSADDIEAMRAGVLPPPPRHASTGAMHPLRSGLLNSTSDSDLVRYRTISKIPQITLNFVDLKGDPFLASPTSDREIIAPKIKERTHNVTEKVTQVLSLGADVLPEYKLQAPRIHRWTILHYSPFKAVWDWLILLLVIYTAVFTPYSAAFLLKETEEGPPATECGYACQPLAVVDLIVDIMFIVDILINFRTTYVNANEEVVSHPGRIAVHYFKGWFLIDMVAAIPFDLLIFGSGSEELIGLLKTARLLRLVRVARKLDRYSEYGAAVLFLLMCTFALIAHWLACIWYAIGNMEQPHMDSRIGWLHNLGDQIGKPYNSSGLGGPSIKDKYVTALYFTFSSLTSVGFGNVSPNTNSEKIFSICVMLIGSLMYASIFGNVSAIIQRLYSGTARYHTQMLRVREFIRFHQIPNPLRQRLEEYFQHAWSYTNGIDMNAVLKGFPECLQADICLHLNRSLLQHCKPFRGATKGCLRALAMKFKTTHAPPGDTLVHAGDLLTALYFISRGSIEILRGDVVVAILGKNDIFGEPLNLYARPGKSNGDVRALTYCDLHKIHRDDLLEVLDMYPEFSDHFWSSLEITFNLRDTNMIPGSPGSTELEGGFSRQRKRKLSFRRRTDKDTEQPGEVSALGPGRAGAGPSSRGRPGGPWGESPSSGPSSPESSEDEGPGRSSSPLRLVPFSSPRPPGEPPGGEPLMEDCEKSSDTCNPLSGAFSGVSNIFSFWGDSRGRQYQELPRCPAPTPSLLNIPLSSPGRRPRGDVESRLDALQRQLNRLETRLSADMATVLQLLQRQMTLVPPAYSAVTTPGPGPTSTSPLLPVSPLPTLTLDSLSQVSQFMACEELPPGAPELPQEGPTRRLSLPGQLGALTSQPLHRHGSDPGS

Row | Ki [1] [nM] | IC50 [2] [nM] | solubility kinetic [3] [µM] | microsomal CLint [4] [µL/min/mg] | microsomal CLint [7] [µL/min/mg] | inhibition at 0.5 h, 30 µM (CYP3A4) [%] | SMILES | IC50 [11] [nM] | further results
1 | 9.2 | 490 | 10 (≈ 3.2 µg/mL) |  |  |  | CC(C)c1ccc2c(-c3cnc(N)c(C(F)(F)F)c3)ncn2c1 |  | 
2 | 0.3 | 23 | 268 (≈ 108 µg/mL) | 3 | 15 |  | CCc1nc(-c2cnc(N)c(C(F)(F)F)c2)c2ccc(C3CCN(C)CC3)cn12 | < 400 | Kp uu [5]: 0.18; bioavailability [6]: 85%; Papp A→B [8]: 10.6 ×10⁻⁶ cm/s; half-life [9]: 228 min; CL/F [10]: 43 mL/min/kg; pKa [12]: 9.2; efflux ratio [13]: 1.6
3 | 1.9 | 94 |  | 14 | 8.3 |  | CCn1nc(-c2cnc(N)c(OC(F)(F)F)c2)c2ccn([C@@H]3CCOC[C@@H]3OC)c(=O)c21 |  | Kp uu [5]: 0.41; microsomal CLint [14]: 96 µL/min/mg
4 |  |  | 1 (≈ 0.39 µg/mL) | 27 | 9 |  | CCc1nc(-c2cnc(N)c(C(F)(F)F)c2)c2ccc(C3CCOCC3)cn12 |  | Papp A→B [8]: 12.3 ×10⁻⁶ cm/s; efflux ratio [13]: 0.8
5 | 3.5 | 79 |  |  |  |  | Nc1ncc(-c2cc(N3C[C@@H]4C[C@H]3CO4)nc(N3CCC(F)(F)C3)n2)cc1OC(F)F [GDC-0134] |  | EC50 [15]: 475 nM; Ki [16]: 7 nM; Emax at 0.74 µM [17]: 75%; IC50 [18]: 301 nM
6 | 1.2 | 54 |  |  |  |  | CO[C@H](C)c1nc(-c2cnc(N)c(C(F)(F)F)c2)c2ccc(C3CCN(C)CC3)cn12 | 1300 | 
7 | 0.6 | 40 |  |  |  |  | CCc1nc(-c2cnc(N)c(C(F)(F)F)c2)c2ccc(C3(F)CCN(C)CC3)cn12 | 600 | pKa [12]: 8.4
8 | 1.2 | 103 |  |  |  | 15 | CCn1nc(-c2cnc(N)c(OC(F)(F)F)c2)c2ccc([C@H]3COCCN3C)cc21 |  | Kp uu [5]: 0.42; Papp A→B [8]: 24.1 ×10⁻⁶ cm/s; efflux ratio [13]: 0.4
9 | 0.7 | 31 |  |  |  |  | CCc1nc(-c2cnc(N)c(OC(F)(F)F)c2)c2ccc(C3(N4CCOCC4)CC3)cn12 | 17000 | pKa [12]: 5.1
10 |  |  | 284 (≈ 115 µg/mL) | 8 | 17 |  | CCc1nc(-c2cnc(N)c(OC(F)F)c2)c2ccc([C@H]3COCCN3C)cn12 |  | Kp uu [5]: 0.14; bioavailability [6]: 144%; Papp A→B [8]: 30.1 ×10⁻⁶ cm/s; half-life [9]: 18 min; CL/F [10]: 109 mL/min/kg; efflux ratio [13]: 0.8
11 | 1.1 | 130 |  | 41 | 66 |  | CCn1nc(-c2cnc(N)c(OC(F)(F)F)c2)c2ccn([C@H]3CCN(C)C[C@H]3OC(F)(F)F)c(=O)c21 |  | microsomal CLint [14]: 21 µL/min/mg
12 | 7.1 | 450 |  |  |  | 67 | CCc1nc(-c2cnc(N)c(OC(F)(F)F)c2)c2cc(Cl)c([C@H]3COCCN3C)cn12 |  | 
13 | 1.2 | 104 |  |  |  | 67 | CCc1nc(-c2cnc(N)c(OC(F)(F)F)c2)c2ccc([C@H]3COCC4(CC4)N3C)cn12 | 30000 | 
14 | 1.5 | 128 | 80 (≈ 30 µg/mL) |  |  |  | CN1CCC(c2ccc3c(-c4cnc(N)c(C(F)(F)F)c4)ncn3c2)CC1 |  | 
15 | 2 | 190 |  |  |  | 87 | CCc1nc(-c2cnc(N)c(OC(F)(F)F)c2)c2ccn(C3CCOCC3)c(=O)n12 |  | 
16 | 0.7 | 22 |  |  |  |  | CN1CCC(c2ccc3c(-c4cnc(N)c(C(F)(F)F)c4)nc([C@@H]4CCCO4)n3c2)CC1 | 800 | 

Row | Ki [1] [nM] | IC50 [2] [nM] | solubility kinetic [3] [µM] | microsomal CLint [4] [µL/min/mg] | microsomal CLint [7] [µL/min/mg] | inhibition at 0.5 h, 30 µM (CYP3A4) [%] | SMILES | IC50 [11] [nM] | further results
17 | 2.8 | 110 |  | 8.8 | 16 | 18 | CCn1nc(-c2cnc(N)c(OC(F)(F)F)c2)c2ccn(C3CCOCC3)c(=O)c21 |  | Kp uu [5]: 0.43; Papp A→B [8]: 7.6 ×10⁻⁶ cm/s; efflux ratio [13]: 1
18 | 4.6 | 242 |  |  |  |  | CCc1nc(-c2cnc(N)c(C(F)(F)F)c2)c2ccc(CN3CCOCC3)cn12 | 2500 | pKa [12]: 6.1
19 | 0.26 | 33 |  |  |  | 65 | CCc1nc(-c2cnc(N)c(OC(F)(F)F)c2)c2ccc([C@H]3COCC(=O)N3C)cn12 |  | 
20 | 3.5 | 300 |  |  |  | 33 | CN1CCOC[C@H]1c1ccc2c(-c3cnc(N)c(OC(F)(F)F)c3)nc(C(F)(F)F)n2c1 |  | 
21 | 5.3 | 290 |  |  |  | 70 | CCc1nc(-c2cnc(N)c(OC(F)(F)F)c2)c2cc(C)c([C@H]3COCCN3C)cn12 |  | 
22 | 4.5 | 405 | 68 (≈ 26.5 µg/mL) |  |  |  | CN1CCC(Cc2ccc3c(-c4cnc(N)c(C(F)(F)F)c4)ncn3c2)CC1 |  | 
23 | 3.2 | 134 | 6 (≈ 2.5 µg/mL) |  |  |  | Nc1ncc(-c2ncn3cc(C4CCN(C5COC5)CC4)ccc23)cc1C(F)(F)F |  | 
24 | 1.3 | 95 |  | 12 | 21 |  | CCn1nc(-c2cnc(N)c(OC(F)(F)F)c2)c2ccn([C@H]3CCOC[C@H]3OC3CC3)c(=O)c21 |  | Kp uu [5]: 0.22; microsomal CLint [14]: 21 µL/min/mg
25 | 0.8 | 48 | 295 (≈ 124 µg/mL) | 6 | 1 | 72 | CCc1nc(-c2cnc(N)c(OC(F)(F)F)c2)c2ccc([C@H]3COCCN3C)cn12 | 16000 | EC50 [15]: 305 nM; Kp uu [5]: 0.17; bioavailability [6]: 141%; Papp A→B [8]: 37.6 ×10⁻⁶ cm/s; half-life [9]: 48 min; Ki (CYP3A [19]): 12.4 µM; kinact (CYP3A [20]): 0.00113 s⁻¹; CL/F [10]: 40 mL/min/kg; Activity (DRG neuron): Active; pKa [12]: 5.8; efflux ratio [13]: 0.7
26 | 2.1 | 94 | 76 (≈ 33.7 µg/mL) |  |  |  | CN1CCC(c2ccc3c(-c4cnc(N)c(C(F)(F)F)c4)nc(C(F)(F)F)n3c2)CC1 |  | 
27 | 2.5 | 100 |  |  |  |  | CCc1nc(-c2cnc(N)c(C(F)(F)F)c2)c2ccc([C@H]3CN(C)CCO3)cn12 | 6900 | pKa [12]: 6.8
28 | 2.4 | 94 |  |  |  | 14 | CCn1nc(-c2cnc(N)c(OC(F)(F)F)c2)c2ccc([C@H]3COCCN3C)nc21 |  | 
29 | 4.3 | 90 | 73 (≈ 27.4 µg/mL) |  |  |  | CN1CCCC[C@H]1c1ccc2c(-c3cnc(N)c(C(F)(F)F)c3)ncn2c1 | 1100 | pKa [12]: 8.1
30 | 2.2 | 200 |  | 3.2 | 9.7 |  | CCn1nc(-c2cnc(N)c(OC(F)(F)F)c2)c2ccn([C@H]3CC4(CC4)OC[C@H]3OC)c(=O)c21 |  | microsomal CLint [14]: 5.4 µL/min/mg
31 |  |  | 320 (≈ 130 µg/mL) | 18 | 20 |  | CCc1nc(-c2cnc(N)c(C(F)(F)F)c2)c2ccc([C@H]3COCCN3C)cn12 |  | Kp uu [5]: 0.17; bioavailability [6]: 112%; Papp A→B [8]: 16.2 ×10⁻⁶ cm/s; half-life [9]: 36 min; CL/F [10]: 68 mL/min/kg; efflux ratio [13]: 1

— ChEMBL document CHEMBL6096672, “In Silico Enabled Discovery of KAI-11101, a Preclinical DLK Inhibitor for the Treatment of Neurodegenerative Disease and Neuronal Injury” (J Med Chem, 2025)
